US20250073351A1, “IMPROVED COMPOSITIONS FOR DELIVERY OF MRNA” (TRANSLATE BIO, INC., priority 2021, published 2025)

Test system: lungs of mice
Experiment: In vivo screen of cationic lipids for pulmonary delivery of FFL mRNA-LNP (IVIS imaging)
Details: LNP with DOPE, DMG-PEG2K, optionally cholesterol; about 5 hours post-dose
Experimental: In this example, various cationic lipids were tested for in Wvo efficacy when mRNA encapsulated in lipid nanoparticles (mRNA-LNP) were administered to mice by pulmonary delivery. The cationic lipids were tested for both potency, as determined by levels of protein production, and tolerability, as determined by side effects associated with clearance and metabolism.
About 150 cationic lipids were tested. (FIG. 16). Each cationic lipid was used in preparing lipid nanoparticles encapsulating mRNA encoding firefly luciferase protein (FFL mRNA) according to methods known in the art. For example, suitable methods for mRNA encapsulation include methods described in International Publication Nos. WO2016/004318 and WO 2018/089801, which are hereby incorporated by reference in their entirety. The tested lipid nanoparticles comprised a lipid component consisting of a cationic lipid, a non-cationic lipid (DOPE), a PEG-modified lipid (DMG-PEG2K), and optionally cholesterol.
Lipid nanoparticle formulations comprising FFL mRNA were administered to mice. At approximately 5 hours post-dose, the animals were dosed with luciferin by intraperitoneal injection and all animals were imaged using an IVIS imaging system to measure luciferase production in the lung. […] Some cationic lipids remarkably had greater than 50-fold increase in pulmonary protein expression as compared to other cationic lipids.

| SMILES | potency as determined by the average radiance detected in mouse lungs |
| --- | --- |
| CCCCC/C=C\C/C=C\CCCCCCCC(=O)OCC(COC(=O)CCCCCCC/C=C\C/C=C\CCCCC)(COC(=O)CCCCCCC/C=C\C/C=C\CCCCC)NCCS(=O)(=O)NCCN(C)C [GL-TES-SA-DME-E18-2, 2-((2-(N-(2-(dimethylamino)ethyl)sulfamoyl)ethyl)amino)-2-((((9Z,12Z)-octadeca-9,12-dienoyl)oxy)methyl)propane-1,3-diyl (9Z,9′Z,12Z,12′Z)-bis(octadeca-9,12-dienoate)] | particularly high potency |
| CCCCC/C=C\C/C=C\CCCCCCCC(=O)OCC(COC(=O)CCCCCCC/C=C\C/C=C\CCCCC)(COC(=O)CCCCCCC/C=C\C/C=C\CCCCC)NCCS(=O)(=O)NCCCN(C)C [GL-TES-SA-DMP-E18-2] | particularly high potency |
| CCCCCCCCC(O)CN(CCCC(=O)OCCN1CC(C)N(CCOC(=O)CCCN(CC(O)CCCCCCCC)CC(O)CCCCCCCC)CC1C)CC(O)CCCCCCCC (stereo not drawn) [HEP-E3-E10] | particularly high potency |
| CCCCCCCCC(O)CN(CCCCC(=O)OCCN1CC(C)N(CCOC(=O)CCCCN(CC(O)CCCCCCCC)CC(O)CCCCCCCC)CC1C)CC(O)CCCCCCCC (stereo not drawn) [HEP-E4-E10] | particularly high potency |
| CCCCCCCCOC(=O)CC(CC(=O)OCCCCCCCC)(OC(=O)CCN(C)C)C(=O)OCCCCCCCC [TL1-01D-DMA, trioctyl 2-((3-(dimethylamino)propanoyl)oxy)propane-1,2,3-tricarboxylate] | particularly high potency |
| CCCCCCCCCCCCCCOC(=O)CC(CC(=O)OCCCCCCCCCCCCCC)(OC(=O)CCN(C)C)C(=O)OCCCCCCCCCCCCCC [TL1-04D-DMA] | particularly high potency |
